Reference: PubChem BioAssay (NCI)
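These data come from cells grown in 96-well plates and exposed to compound for 48 hours at five concentrations. Definition used: TGI = concentration required for complete inhibition of growth.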 Calls of active or inactive are those of the source. Cut-off read from the data, not from the text of the source: active = GI50 below about 0.43 µM; inactive = the rest.

Legend:
Assay in all cases: NCI tumour cell line growth inhibition, 48 h
IGROV1 ovarian = tested on: IGROV1 ovarian
U251 CNS = tested on: U251 CNS
HL-60(TB) leukemia = tested on: HL-60(TB) leukemia
SF-539 CNS = tested on: SF-539 CNS
K-562 leukemia = tested on: K-562 leukemia
HCC-2998 colon = tested on: HCC-2998 colon
OVCAR-8 ovarian = tested on: OVCAR-8 ovarian
SK-MEL-28 melanoma = tested on: SK-MEL-28 melanoma
M14 melanoma = tested on: M14 melanoma
UO-31 renal = tested on: UO-31 renal
MOLT-4 leukemia = tested on: MOLT-4 leukemia
RPMI-8226 leukemia = tested on: RPMI-8226 leukemia
HOP-92 NSCLC = tested on: HOP-92 NSCLC
M19-MEL melanoma = tested on: M19-MEL melanoma
DU-145 prostate = tested on: DU-145 prostate
UACC-62 melanoma = tested on: UACC-62 melanoma
SR leukemia = tested on: SR leukemia
ACHN renal = tested on: ACHN renal
A549 NSCLC = tested on: A549 NSCLC
HOP-62 NSCLC = tested on: HOP-62 NSCLC
MDA-MB-435 = tested on: MDA-MB-435
OVCAR-4 ovarian = tested on: OVCAR-4 ovarian
MALME-3M melanoma = tested on: MALME-3M melanoma
HOP-18 NSCLC = tested on: HOP-18 NSCLC
XF 498 CNS = tested on: XF 498 CNS
SW-620 colon = tested on: SW-620 colon
PC-3 prostate = tested on: PC-3 prostate
LOX IMVI melanoma = tested on: LOX IMVI melanoma
DLD-1 colon = tested on: DLD-1 colon
MDA-MB-231 breast = tested on: MDA-MB-231 breast
SNB-75 CNS = tested on: SNB-75 CNS
NCI-H522 lung = tested on: NCI-H522 lung
HT29 colon = tested on: HT29 colon
SN12C renal = tested on: SN12C renal
HCT-15 colon = tested on: HCT-15 colon
SNB-19 CNS = tested on: SNB-19 CNS
LXFL 529 NSCLC = tested on: LXFL 529 NSCLC
SK-MEL-2 melanoma = tested on: SK-MEL-2 melanoma
HCT-116 colon = tested on: HCT-116 colon
SK-OV-3 ovarian = tested on: SK-OV-3 ovarian
RXF-631 renal = tested on: RXF-631 renal
SK-MEL-5 melanoma = tested on: SK-MEL-5 melanoma
RXF 393 renal = tested on: RXF 393 renal
MCF7 breast = tested on: MCF7 breast
NCI-H226 lung = tested on: NCI-H226 lung
COLO 205 colon = tested on: COLO 205 colon
KM12 colon = tested on: KM12 colon
EKVX NSCLC = tested on: EKVX NSCLC
OVCAR-5 ovarian = tested on: OVCAR-5 ovarian
UACC-257 melanoma = tested on: UACC-257 melanoma
CCRF-CEM leukemia = tested on: CCRF-CEM leukemia
NCI-H460 lung = tested on: NCI-H460 lung
NCI-H23 lung = tested on: NCI-H23 lung
TK-10 renal = tested on: TK-10 renal
SF-268 CNS = tested on: SF-268 CNS
NCI/ADR-RES ovarian = tested on: NCI/ADR-RES ovarian
HS 578T breast = tested on: HS 578T breast
SF-295 CNS = tested on: SF-295 CNS
KM20L2 colon = tested on: KM20L2 colon
CAKI-1 renal = tested on: CAKI-1 renal
BT-549 breast = tested on: BT-549 breast
OVCAR-3 ovarian = tested on: OVCAR-3 ovarian
MDA-N = tested on: MDA-N
786-0 renal = tested on: 786-0 renal
A498 renal = tested on: A498 renal
SNB-78 CNS = tested on: SNB-78 CNS
DMS 114 small cell lung = tested on: DMS 114 small cell lung
DMS 273 small cell lung = tested on: DMS 273 small cell lung

Compound: N#CCC(=O)N/N=C(\CCN1CCCC1)CC(c1ccccc1)c1c(O)c2ccccc2oc1=O (centres undefined)
- TGI (IGROV1 ovarian): > 100 µM
- TGI (U251 CNS): > 100 µM
- TGI (HL-60(TB) leukemia): 59.6 µM
- TGI (SF-539 CNS): > 100 µM
- TGI (K-562 leukemia): > 100 µM
- TGI (HCC-2998 colon): > 100 µM
- TGI (OVCAR-8 ovarian): > 100 µM
- TGI (SK-MEL-28 melanoma): > 100 µM
- TGI (M14 melanoma): > 100 µM
- TGI (UO-31 renal): > 100 µM
- TGI (MOLT-4 leukemia): 61.5 µM
- TGI (RPMI-8226 leukemia): > 92.8 µM
- TGI (HOP-92 NSCLC): > 100 µM
- TGI (M19-MEL melanoma): > 100 µM
- TGI (DU-145 prostate): > 100 µM
- TGI (UACC-62 melanoma): > 100 µM
- TGI (SR leukemia): 69.8 µM
- TGI (ACHN renal): > 100 µM
- TGI (A549 NSCLC): > 100 µM
- TGI (HOP-62 NSCLC): > 100 µM
- TGI (MDA-MB-435): > 100 µM
- TGI (OVCAR-4 ovarian): > 100 µM
- TGI (MALME-3M melanoma): > 100 µM
- TGI (HOP-18 NSCLC): > 100 µM
- TGI (XF 498 CNS): > 100 µM
- TGI (SW-620 colon): > 100 µM
- TGI (PC-3 prostate): > 100 µM
- TGI (LOX IMVI melanoma): > 64.7 µM
- TGI (DLD-1 colon): > 100 µM
- TGI (MDA-MB-231 breast): > 100 µM
- TGI (SNB-75 CNS): > 100 µM
- TGI (NCI-H522 lung): > 100 µM
- TGI (HT29 colon): > 100 µM
- TGI (SN12C renal): > 100 µM
- TGI (HCT-15 colon): > 100 µM
- TGI (SNB-19 CNS): > 100 µM
- TGI (LXFL 529 NSCLC): > 100 µM
- TGI (SK-MEL-2 melanoma): > 100 µM
- TGI (HCT-116 colon): > 100 µM
- TGI (SK-OV-3 ovarian): > 100 µM
- TGI (RXF-631 renal): > 100 µM
- TGI (SK-MEL-5 melanoma): > 100 µM
- TGI (RXF 393 renal): > 100 µM
- TGI (MCF7 breast): 45.9 µM
- TGI (NCI-H226 lung): > 100 µM
- TGI (COLO 205 colon): > 56.8 µM
- TGI (KM12 colon): > 100 µM
- TGI (EKVX NSCLC): > 100 µM
- TGI (OVCAR-5 ovarian): > 100 µM
- TGI (UACC-257 melanoma): > 100 µM
- TGI (CCRF-CEM leukemia): > 94.8 µM
- TGI (NCI-H460 lung): > 100 µM
- TGI (NCI-H23 lung): > 100 µM
- TGI (TK-10 renal): > 100 µM
- TGI (SF-268 CNS): > 100 µM
- TGI (NCI/ADR-RES ovarian): > 100 µM
- TGI (HS 578T breast): > 100 µM
- TGI (SF-295 CNS): > 100 µM
- TGI (KM20L2 colon): > 100 µM
- TGI (CAKI-1 renal): > 100 µM
- TGI (BT-549 breast): > 100 µM
- TGI (OVCAR-3 ovarian): > 100 µM
- TGI (MDA-N): > 100 µM
- TGI (786-0 renal): > 100 µM
- TGI (A498 renal): > 85.5 µM

Compound: COC(=O)C1(COCc2ccccc2)CCCC2OC21 (centres undefined)
- outcome (IGROV1 ovarian): inactive
- outcome (U251 CNS): inactive
- outcome (HL-60(TB) leukemia): inactive
- outcome (SF-539 CNS): inactive
- outcome (K-562 leukemia): inactive
- outcome (HCC-2998 colon): inactive
- outcome (OVCAR-8 ovarian): inactive
- outcome (M14 melanoma): inactive
- outcome (UO-31 renal): inactive
- outcome (MOLT-4 leukemia): inactive
- outcome (RPMI-8226 leukemia): inactive
- outcome (HOP-92 NSCLC): inactive
- outcome (M19-MEL melanoma): inactive
- outcome (SNB-78 CNS): inactive
- outcome (UACC-62 melanoma): inactive
- outcome (SR leukemia): inactive
- outcome (ACHN renal): inactive
- outcome (A549 NSCLC): inactive
- outcome (HOP-62 NSCLC): inactive
- outcome (OVCAR-4 ovarian): inactive
- outcome (MALME-3M melanoma): inactive
- outcome (XF 498 CNS): inactive
- outcome (SW-620 colon): inactive
- outcome (LOX IMVI melanoma): inactive
- outcome (DLD-1 colon): inactive
- outcome (SNB-75 CNS): inactive
- outcome (NCI-H522 lung): inactive
- outcome (HT29 colon): inactive
- outcome (SN12C renal): inactive
- outcome (HCT-15 colon): inactive
- outcome (SNB-19 CNS): inactive
- outcome (LXFL 529 NSCLC): inactive
- outcome (SK-MEL-2 melanoma): inactive
- outcome (DMS 114 small cell lung): inactive
- outcome (HCT-116 colon): inactive
- outcome (SK-OV-3 ovarian): inactive
- outcome (RXF-631 renal): inactive
- outcome (DMS 273 small cell lung): inactive
- outcome (RXF 393 renal): inactive
- outcome (NCI-H226 lung): inactive
- outcome (COLO 205 colon): inactive
- outcome (KM12 colon): inactive
- outcome (EKVX NSCLC): inactive
- outcome (OVCAR-5 ovarian): inactive
- outcome (UACC-257 melanoma): inactive
- outcome (CCRF-CEM leukemia): inactive
- outcome (NCI-H460 lung): inactive
- outcome (NCI-H23 lung): inactive
- outcome (SF-268 CNS): inactive
- outcome (SF-295 CNS): inactive
- outcome (KM20L2 colon): inactive
- outcome (CAKI-1 renal): inactive
- outcome (OVCAR-3 ovarian): inactive
- outcome (786-0 renal): inactive
